In article PMC4474874, “Effect of JAK Inhibitors on Release of CXCL9, CXCL10 and CXCL11 from Human Airway Epithelial Cells” (PLoS ONE, 2015):
Read-outs that look alike come from different tables or passages of the source.

Columns and labels:
Type in all cases: cell-based, human
[1] = test system: STAT-1; experiment: STAT-1 phosphorylation in BEAS-2B cells (western blot); details: for IC50: n = 4
Description: Enhanced chemiluminescence (ECL) reagent and Hybond-ECL nitrocellulose were obtained from GE Healthcare (Little Chalfont, UK). Bis-Tris SDS-PAGE (4–12%) gels and buffers were purchased from Invitrogen Ltd (Paisley, Scotland, UK). Antibodies against phosphorylated and total STAT-1 were purchased from New England Biolabs (Hitchin, UK). Epithelial cells were treated as indicated in six-well plates and lysed in 10 mM Tris-HCl buffer (pH 7.5) containing 150 mM NaCl, 2 mM EDTA, 1 mM sodium orthovanadate, 1% (v/v) Triton X-100, 1 mM phenylmethylsulfonyl fluoride, 10 μg/ml leupeptin, and 10 μg/ml aprotinin) for 30 min on ice. The lysates were then centrifuged at 12,000g for 15 min and protein concentration determined using the BCA protein assay (BioRad, Hemel Hempstead, UK). The proteins within the lysates (20 μg) were resolved with 4–12% Bis-Tris gels and transferred onto nitrocellulose membranes. The membranes were then blocked with 5% (w/v) non-fat milk in TBS containing 0.1% (v/v) Tween 20 for 1 h at room temperature and then incubated with antibodies specific for pSTAT-1 overnight at 4°C. The primary antibody was detected with peroxidase-conjugated secondary antibodies and labelled proteins were detected by ECL.
Having ascertained that JAK inhibitors could suppress the glucocorticosteroid-insensitive release of CXCL9, CXCL10 and CXCL11 from airway epithelial cells, it was important to confirm that this was via inhibition of the JAK-STAT pathway and not an off-target effect of these agents. […] BEAS-2B cells were stimulated with either IFNγ or IFNγ in combination with TNFα and the phosphorylation of STAT-1 was measured by western blotting as reported previously (Fig 4). […] There was no activation of STAT-5A or STAT-5B in this system (data not shown).
Cells were harvested and western blots performed for phosphorylated STAT-1 and total STAT-1 and quantified by densitometry. Data are representative of n = 4 independent experiments (panels a and c) and presented as mean±SEM, n = 4 (panels b and d).

[2] = test system: BEAS-2B cells; experiment: Release of CXCL9, CXCL10 and CXCL11 from BEAS-2B cells (ELISA), inhibitors added concomitantly with stimulus
Description: Cell-free supernatants were removed 20h post-stimulation and assayed for CXCL9, CXCL10 and CXCL11 using Duoset ELISA kits (R & D Systems Europe, Abingdon, UK) according to the manufacturer’s instructions. The detection limits of these assays are 62pg/ml, 31pg/ml, and 7.8 pg/ml respectively.
It was possible that concomitant addition of stimulus and JAK inhibitors may elicit a different inhibitory profile, therefore to address this, experiments were performed. […] Experiments were then performed to determine the effects of both JAK inhibitors in human primary airway epithelial cells in order to determine whether their ability to suppress CXCR3 chemokine release from BEAS-2B cells was reflective of their efficacy in primary cells.
Media was harvested and the concentrations of CXCL9 (panels a and d), CXCL10 (panels b and e) and CXCL11 (panels c and f) were measured by ELISA. Data are presented as mean±SEM, n = 7–8. (EPS) Click here for additional data file. […]
After this time, media was harvested and the concentrations of CXCR3 chemokines measured by ELISA. Data are presented as mean±SEM, n=4

[3] = test system: STAT-1; experiment: STAT-1 DNA binding in BEAS-2B cells (TransAM); details: IFNγ and IFNγ + TNFα stimulation
Description: STAT phosphorylation, nuclear translocation and DNA binding was determined using TransAM assays (Actif Motif, Rixensart, Belgium). Cells were treated with JAK inhibitors for 30 min prior to stimulation for 1h. Nuclear extracts were prepared using the Actif Motif assay reagents. Briefly, the nuclear extracts (10 μg) were incubated in DNA coated plates for 1h. After washing, antibodies supplied with the TransAM kit that were specific for the active forms of STAT1, STAT3, STAT5A and STAT5B were added to the wells and incubated for a further hour. The plates were washed and a secondary HRP-labelled anti-goat Ig antibody was added and the plates incubated for an hour. After washing, the assay was developed using the TMB substrate provided and the reaction stopped using 2N sulphuric acid. The plates were read at 450nm with a reference filter of 610nm. Data were then normalised to non-stimulated cells and calculated as fold change from baseline.
After 1 h, nuclear extracts of the cells were prepared and TransAM assays for STAT-1 (panel a) and STAT-3 (panel b) were performed. Data are presented as fold change from baseline ± SEM; n = 4.

C[C@@H]1CCN(C(=O)N2CCCC2)C[C@@H]1N(C)c1ncnc2[nH]ccc12 [PF956980]
IC50 ([1]; IFNγ + TNFα stimulation): 840 ± 210 nM
IC50 ([1]; IFNγ stimulation): 940 ± 160 nM
IC50 ([2]; inhibitor concomitant with IFNγ (10 ng/ml) 20h, read-out: IC50, release of CXCL9): 300 ± 100 nM
IC50 ([2]; inhibitor concomitant with IFNγ (10 ng/ml) 20h, read-out: IC50, release of CXCL10): 1100 ± 400 nM
IC50 ([2]; inhibitor concomitant with IFNγ (10 ng/ml) 20h, read-out: IC50, release of CXCL11): 1100 ± 300 nM
IC50 ([2]; inhibitor concomitant with IFNγ+TNFα (10 ng/ml) 20h, read-out: IC50, release of CXCL9): 1000 ± 300 nM
IC50 ([2]; inhibitor concomitant with IFNγ+TNFα (10 ng/ml) 20h, read-out: IC50, release of CXCL10): 4000 ± 1300 nM
effect on STAT-1 DNA binding [3]: suppressed

CCc1cc(O)ccc1-c1ccc2c(-c3nc4ccccc4[nH]3)n[nH]c2c1 [PF1367550, 4-(3-(1H-benzo[d]imidazol-2-yl)-1H-indazol-6-yl)-3-ethylphenol]
fold more potent at suppressing STAT-1 phosphorylation compared with PF956980 [1]: ~ 40 fold
IC50 ([1]; Homo sapiens, IFNγ + TNFα stimulation): 32 ± 13 nM
IC50 ([1]; Homo sapiens, IFNγ stimulation): 24 ± 6 nM
IC50 ([2]; Homo sapiens, 20 h, inhibitor concomitant with IFNγ (10 ng/ml) 20h, read-out: IC50, release of CXCL9): 10.3 ± 2.1 nM
IC50 ([2]; Homo sapiens, 20 h, inhibitor concomitant with IFNγ (10 ng/ml) 20h, read-out: IC50, release of CXCL10): 16.6 ± 2.7 nM
IC50 ([2]; Homo sapiens, 20 h, inhibitor concomitant with IFNγ (10 ng/ml) 20h, read-out: IC50, release of CXCL11): 16 ± 4.1 nM
IC50 ([2]; Homo sapiens, 20 h, inhibitor concomitant with IFNγ+TNFα (10 ng/ml) 20h, read-out: IC50, release of CXCL9): 31.6 ± 13.4 nM
IC50 ([2]; Homo sapiens, 20 h, inhibitor concomitant with IFNγ+TNFα (10 ng/ml) 20h, read-out: IC50, release of CXCL10): 146 ± 32.6 nM
IC50 ([2]; Homo sapiens, 20 h, inhibitor concomitant with IFNγ+TNFα (10 ng/ml) 20h, read-out: IC50, release of CXCL11): 32 ± 8.7 nM
effect on STAT-1 DNA binding [3]: suppressed
